Experimental data taken from US9499493B2, “2,4-pyrimidinediamine compounds and their uses” (Rigel Pharmaceuticals, Inc., priority 2002, dated 2016).

Experiments:
[1] = system: cultured human mast cells (CHMC); assay: CHMC low cell density ionomycin activation: tryptase assay; assay type: cell-based
[2] = system: cultured human mast cells (CHMC); assay: CHMC low cell density IgE activation: tryptase assay; assay type: cell-based; conditions: anti-IgE
In short: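 Low-density CHMC assay: donor-adjusted 1000-1500 cells/well, MT buffer, 1 hr 37° C preincubation; anti-IgE stimulus 30 min 37° C versus MT-only controls; supernatant tryptase by substrate, 30 min RT.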

| IC50 [1] [µM] | IC50 [2] [µM] | Compound |
| --- | --- | --- |
| > 10 | > 10 | CCOC(=O)c1cnc(Nc2ccc(OCC(=O)NCC3CC3)cc2)nc1Nc1cccc(O)c1 [R925838, N2-[4-(N-Cyclopropylmethylamino)carbonylmethyleneoxyphenyl]-5-ethoxycarbonyl-N4-(3-hydroxyphenyl)-2,4-pyrimidinediamine] |
| > 10 | > 10 | CNC(=O)COc1cccc(Nc2ncc(F)c(Nc3ccc(Cl)c(-c4nc5ccccc5s4)c3)n2)c1 [R926900, N4-[3-(Benzothiazol-2-yl)-4-chlorophenyl]-5-fluoro-N2-[3-[(N-methylamino)carbonylmethyleneoxy]phenyl)-2,4-pyrimidinediamine] |
| > 10 | 0.536 | CC(C)(CO)c1ccc(Nc2ncc(F)c(Nc3cccc(O)c3)n2)cc1 [R935171, 5-Fluoro-N2-[4-(2-hydroxy-1,1-dimethylethyl)phenyl]-N4-(3-hydroxyphenyl)-2,4-pyrimidinediamine] |
| > 10 | 7.91 | N2-(Carboxymethyleneaminophenyl)-5-fluoro-N4-[3-(2-hydroxyethyloxy)phenyl]-2,4-pyrimidinediamine [R950230] |
| > 10 | 0.554 | Cn1ncc2cc(Nc3nc(Nc4cccc(O)c4)ncc3F)ccc21 [R935204, 5-Fluoro-N2-(3-hydroxyphenyl)-N4-(1-methyl-indazoline-5-yl)-2,4-pyrimidinediamine] |
| > 10 | 0.787 | COc1c(C)cc(Nc2nc(Nc3cccc(OCC(=O)N4CCNCC4)c3)ncc2F)cc1C [R945156, N4-(3,5-Dimethyl-4-methoxyphenyl)-5-fluoro-N2-[3-(N-piperazino)carbonylmethyleneoxyphenyl]-2,4-pyrimidinediamine] |
| 5.5 | 0.453 | COc1cc(Nc2ncc(F)c(Nc3ccc4c(cnn4C)c3)n2)cc(OC)c1 [R935214, 5-Fluoro-N2-(3,5-dimethoxyphenyl)-N4-(1-methyl-indazoline-5-yl)-2,4-pyrimidinediamine] |
| > 10 | 0.083 | CNC(=O)COc1cccc(Nc2ncc(F)c(Nc3ccc4c(c3)NC(C)(C)CO4)n2)c1 [R909309, N4-(3,3-Dimethyl-1,4-benzoxazin-6-yl)-5-fluoro-N2-[3-(N-methylaminocarbonylmethyleneoxy)phenyl]-2,4-pyrimidinediamine] |
| > 10 | 0.161 | CNC(=O)COc1cccc(Nc2ncc(F)c(Nc3ccc(C)c(Cl)c3)n2)c1 [R926839, N4-(3-Chloro-4-methylphenyl)-5-fluoro-N2-[3-(N-methylamino)carbonylmethyleneoxyphenyl]-2,4-pyrimidinediamine] |
| > 10 | 0.174 | CC(C)Oc1ccc(Nc2nc(Nc3ccc4[nH]ncc4c3)ncc2F)cc1 [R935197, 5-Fluoro-N2-(indazoline-5-yl)-N4-(4-isopropoxyphenyl)-2,4-pyrimidinediamine] |
| > 10 | 0.61 | O=C(CNc1cccc(Nc2ncc(F)c(Nc3ccc4c(c3)OCCO4)n2)c1)N1CCOCC1 [R950193, N4-(3,4-Ethylenedioxyphenyl)-5-fluoro-N2-[3-(N-morpholino)carbonylmethyleneaminophenyl]-2,4-pyrimidinediamine] |
| > 10 | 1.44 | CNC(=O)CCn1ncc2cc(Nc3ncc(F)c(Nc4cccc(OC(F)(F)F)c4)n3)ccc21 [R935361, 5-Fluoro-N2-[1-[2(N-methylaminocarbonyl)ethyl]indazoline-5-yl]-N4-(3-trifluoromethoxyphenyl)-2,4-pyrimidinediamine] |

The remaining lines, values behind:

| Compound | IC50 [1] [µM] | IC50 [2] [µM] |
| --- | --- | --- |
| CSc1nc2ccc(Nc3ncc(F)c(Nc4ccc5nc(SC)sc5c4)n3)cc2s1 [R950202, N2,N4-Bis[2-(methylthio)-1,3-benzothiaz-6-yl]-5-fluoro-2,4-pyrimidinediamine] | > 10 | 3.22 |
| CNC(=O)COc1cccc(Nc2nc(Nc3cccc4c3CCO4)ncc2F)c1 [R909249, N2-(4-Dihydrobenzofuranyl)-5-fluoro-N4-[3-(N-methylamino)carbonylmethyleneoxyphenyl]-2,4-pyrimidinediamine] | > 10 | > 10 |
| CCOC(=O)COc1cccc(Nc2ncc(F)c(Nc3ccc(O)c(C(=O)OC)c3)n2)c1 [R950293, N4-(3-Methoxycarbonyl-4-hydroxyphenyl)-5-fluoro-N2-[3-ethoxycarbonylmethyleneoxyphenyl]-2,4-pyrimidinediamine] | 8.15 | 3.69 |
| CC(C)(C)c1cccc(Nc2nc(Nc3cccc(OCCO)c3)ncc2F)c1 [R940282, N4-(3-tert-Butylphenyl)-5-fluoro-N2-[3-(2-hydroxyethyleneoxy)phenyl]-2,4-pyrimidinediamine] | 3.02 | 0.401 |
| COC(=O)COc1cccc(Nc2ncc(F)c(Nc3cc(C)c(OC)c(C)c3)n2)c1 [R945153, N4-(3,5-Dimethyl-4-methoxyphenyl)-5-fluoro-N2-(3-methoxycarbonylmethyleneoxyphenyl)-2,4-pyrimidinediamine] | 6.56 | 0.688 |
| CCOC(=O)COc1cccc(Nc2nc(Nc3cccc(C(C)(C)C)c3)ncc2F)c1 [R940266, N2-(3-tert-Butylphenyl)-N4-(3-ethoxycarbonylmethyleneoxyphenyl)-5-fluoro-4-pyrimidinediamine] | > 10 | > 10 |
| COC(=O)COc1cccc(Nc2ncc(F)c(Nc3ccc4c(c3)OCCO4)n2)c1 [R945124, N4-(3,4-Ethylenedioxyphenyl)-5-fluoro-N2-(3-methoxycarbonylmethyleneoxyphenyl)-2,4-pyrimidinediamine] | 7.85 | 0.69 |
| Cc1cnc(Nc2ccc(OCc3nnn[nH]3)cc2)nc1Nc1cccc(O)c1 [R920820, N4-(3-Hydroxyphenyl)-5-methyl-N2-[4-(1H,1,2,3,4-tetrazol-5-yl)methyleneoxyphenyl]-2,4-pyrimidinediamine] | > 10 | > 10 |
| CNC(=O)COc1cccc(Nc2ncc(F)c(Nn3cccc3)n2)c1 [R935281, 5-Fluoro-N2-[3-(N-methylaminocarbonylmethyleneoxy)phenyl]-N4-(1H-pyrrol-1-yl)-2,4-pyrimidinediamine] | > 10 | 1.4 |
| O=C(NCCN1CCOCC1)c1cc2cc(Nc3ncc(F)c(Nc4ccc5oc(C(=O)NCCN6CCOCC6)cc5c4)n3)ccc2o1 [R950173, N2,N4-Bis[2-(2-N-morpholinoethyleneamoinocarbonyl)-benzofurane-5-yl]-5-fluoro-2,4-pyrimidinediamine] | > 10 | 2.37 |
| CNC(=O)COc1cc(O)cc(Nc2ncc(F)c(Nc3cccc(O)c3)n2)c1 [R926929, 5-Fluoro-N2-[3-hydroxy-5-[(N-methylamino)carbonylmethyleneoxy]phenyl]-N4-(3-hydroxyphenyl)-2,4-pyrimidinediamine] | > 10 | 1.92 |
| Fc1cnc(Nc2ccc3c(c2)OCCO3)nc1Nc1ccc(OCc2nc(-c3ccccc3)no2)cc1 [R935140, N2-(3,4-Ethylenedioxyphenyl)-5-fluoro-N4-[4-(3-phenyl-1,2,4-oxadiazol-5-yl)methyleneoxyphenyl]-2,4-pyrimidinediamine] | 0.959 | 0.275 |
| CS(=O)(=O)Nc1ccc(Nc2ncc(F)c(Nc3ccc(NS(C)(=O)=O)cc3)n2)cc1 [R950083, N2,N4-Bis[(4-methylsulfonylamino)phenyl]-5-fluoro-2,4-pyrimidinediamine] | > 10 | > 10 |
